Consider 49 substances from the OligoGym collection.

Oligonucleotides are written 5' to 3', each unit as a sugar letter and its base; * is a phosphorothioate linkage, no mark a phosphodiester; rarer units and linkages stand in square brackets, end groups in braces. Plain capitals give the bases only. d = 2'-deoxy (DNA); r = 2'-OH (RNA)
Note: test concentration or dose not given here.

One data set has as its target UBE2J1. The data set is described as follows: reporter assay of Huesken 2005. The following applies: siRNA.
For “sense rArCrArArArArGrGrArGrArGrGrGrArGrCrCrAdTdT / antisense rUrGrGrCrUrCrCrCrUrCrUrCrCrUrUrUrUrGrUdTdG”, the normalised inhibition (eCFP-eYFP dual reporter) came out at 41.7%.

As for “sense rArCrArGrCrArUrUrArUrUrArGrCrCrArUrCrAdTdT / antisense rUrGrArUrGrGrCrUrArArUrArArUrGrCrUrGrUdCdC”, the normalised inhibition (eCFP-eYFP dual reporter) turned out to be 54.7%. Still for that read-out and setting: next, “sense rArGrArArGrUrCrArArUrUrCrArUrCrUrGrGrAdTdT / antisense rUrCrCrArGrArUrGrArArUrUrGrArCrUrUrCrUdGdC”: 79.6%; “sense rArGrArGrArArGrGrUrUrGrUrCrUrArCrUrUrCdTdT / antisense rGrArArGrUrArGrArCrArArCrCrUrUrCrUrCrUdGdA”: 78.8%. Still for that read-out and setting: with “sense rArGrGrArArArGrArArGrArGrCrArCrUrUrGrCdTdT / antisense rGrCrArArGrUrGrCrUrCrUrUrCrUrUrUrCrCrUdCdA” the figure was 70.7%; with “sense rArGrGrArCrArGrCrArUrUrArUrUrArGrCrCrAdTdT / antisense rUrGrGrCrUrArArUrArArUrGrCrUrGrUrCrCrUdTdA”, 74.8%. Still for that read-out and setting: with “sense rArUrArUrArUrCrUrGrGrCrArArArCrGrArArUdTdT / antisense rArUrUrCrGrUrUrUrGrCrCrArGrArUrArUrArUdTdC” the figure was 95.9%; with “sense rArUrCrArUrUrArCrCrArUrGrCrGrCrArGrCrCdTdT / antisense rGrGrCrUrGrCrGrCrArUrGrGrUrArArUrGrArUdCdT”, 55.2%.

Turning to “sense rArUrCrCrArGrGrGrCrCrArCrCrArGrCrCrArAdTdT / antisense rUrUrGrGrCrUrGrGrUrGrGrCrCrCrUrGrGrArUdTdA”, the normalised inhibition (eCFP-eYFP dual reporter) amounted to 76%. As for “sense rArUrGrArArArCrCrArCrCrArArGrCrArUrUrAdTdT / antisense rUrArArUrGrCrUrUrGrGrUrGrGrUrUrUrCrArUdGdG”, the normalised inhibition (eCFP-eYFP dual reporter) was found to be 68.1%. On the same count and under the same terms, with “sense rArUrGrGrUrCrGrArUrUrUrGrArArGrUrGrGrGdTdT / antisense rCrCrCrArCrUrUrCrArArArUrCrGrArCrCrArUdTdA” the figure was 56.3%.

Another data set addresses UBE2L3. The data set is described as follows: reporter assay of Huesken 2005. The conditions noted are these: siRNA.
For “sense rCrArCrCrCrGrCrUrUrCrGrGrGrCrUrGrArCrCdTdT / antisense rGrGrUrCrArGrCrCrCrGrArArGrCrGrGrGrUrGdCdT”, the normalised inhibition (eCFP-eYFP dual reporter) amounted to 60%.

As to “sense rCrArGrCrArArCrCrArArArArCrCrGrArCrCrAdTdT / antisense rUrGrGrUrCrGrGrUrUrUrUrGrGrUrUrGrCrUrGdGdC”, the normalised inhibition (eCFP-eYFP dual reporter) was found to be 60%.

Turning to “sense rCrArGrCrArGrArGrUrArCrCrCrArUrUrCrArAdTdT / antisense rUrUrGrArArUrGrGrGrUrArCrUrCrUrGrCrUrGdGdA”, the normalised inhibition (eCFP-eYFP dual reporter) came out at 90%.

On to “sense rCrArGrCrCrUrGrArGrCrArCrCrCrGrCrUrUrCdTdT / antisense rGrArArGrCrGrGrGrUrGrCrUrCrArGrGrCrUrGdGdG”, for which the normalised inhibition (eCFP-eYFP dual reporter) is 37.1%. Still for that read-out and setting: with “sense rCrArGrGrUrUrGrArUrGrArArGrCrUrArArUrUdTdT / antisense rArArUrUrArGrCrUrUrCrArUrCrArArCrCrUrGdGdA” the figure was 96.7%. Same read-out and setting: with “sense rCrArUrArGrCrArCrUrGrGrUrGrArArUrGrArCdTdT / antisense rGrUrCrArUrUrCrArCrCrArGrUrGrCrUrArUrGdAdG” the figure was 80.9%; with “sense rCrCrArArArArCrCrGrArCrCrArArGrUrArArUdTdT / antisense rArUrUrArCrUrUrGrGrUrCrGrGrUrUrUrUrGrGdTdT”, 84.6%. Same read-out and setting: with “sense rCrCrArArArCrArUrCrGrArCrGrArArArArGrGdTdT / antisense rCrCrUrUrUrUrCrGrUrCrGrArUrGrUrUrUrGrGdGdT” the figure was 59.4%; with “sense rCrCrArArGrUrArArUrCrCrArGrUrCrCrCrUrCdTdT / antisense rGrArGrGrGrArCrUrGrGrArUrUrArCrUrUrGrGdTdC”, 61.4%; with “sense rCrCrArGrUrArArUrUrArGrUrGrCrCrGrArArAdTdT / antisense rUrUrUrCrGrGrCrArCrUrArArUrUrArCrUrGrGdCdA”, 82.8%. “sense rCrCrCrGrCrUrUrCrGrGrGrCrUrGrArCrCrUrAdTdT / antisense rUrArGrGrUrCrArGrCrCrCrGrArArGrCrGrGrGdTdG”: the normalised inhibition (eCFP-eYFP dual reporter) was 62.3%. Turning to “sense rCrCrGrArArGrArUrCrArCrArUrUrUrArArArAdTdT / antisense rUrUrUrUrArArArUrGrUrGrArUrCrUrUrCrGrGdTdG”, the normalised inhibition (eCFP-eYFP dual reporter) stood at 83.4%.

Turning to “sense rCrCrGrUrArArCrArUrCrCrArGrGrUrUrGrArUdTdT / antisense rArUrCrArArCrCrUrGrGrArUrGrUrUrArCrGrGdAdA”, the normalised inhibition (eCFP-eYFP dual reporter) stood at 61.4%.

Regarding “sense rCrCrUrArGrCrUrGrArArGrArArUrArCrUrCrUdTdT / antisense rArGrArGrUrArUrUrCrUrUrCrArGrCrUrArGrGdTdC”, the normalised inhibition (eCFP-eYFP dual reporter) amounted to 63.9%.

Regarding “sense rCrCrUrCrCrArUrArUrGrArUrArArGrGrGrArGdTdT / antisense rCrUrCrCrCrUrUrArUrCrArUrArUrGrGrArGrGdGdT”, the normalised inhibition (eCFP-eYFP dual reporter) turned out to be 81.2%.

Consider “sense rCrGrGrGrCrUrGrArCrCrUrArGrCrUrGrArArGdTdT / antisense rCrUrUrCrArGrCrUrArGrGrUrCrArGrCrCrCrGdAdA”, for which the normalised inhibition (eCFP-eYFP dual reporter) worked out at 61.3%.

For the substance “sense rCrUrCrArUrArGrCrArCrUrGrGrUrGrArArUrGdTdT / antisense rCrArUrUrCrArCrCrArGrUrGrCrUrArUrGrArGdGdG”, the normalised inhibition (eCFP-eYFP dual reporter) stood at 77.1%.

Take “sense rCrUrGrArGrCrArCrCrCrGrCrUrUrCrGrGrGrCdTdT / antisense rGrCrCrCrGrArArGrCrGrGrGrUrGrCrUrCrArGdGdC”: the normalised inhibition (eCFP-eYFP dual reporter) is 51.7%.

Consider “sense rCrUrGrUrCrUrGrCrCrArGrUrArArUrUrArGrUdTdT / antisense rArCrUrArArUrUrArCrUrGrGrCrArGrArCrArGdAdC”, for which the normalised inhibition (eCFP-eYFP dual reporter) came to 52.5%. As to “sense rGrArCrCrUrArGrCrUrGrArArGrArArUrArCrUdTdT / antisense rArGrUrArUrUrCrUrUrCrArGrCrUrArGrGrUrCdAdG”, the normalised inhibition (eCFP-eYFP dual reporter) is 102%. Still for that read-out and setting: with “sense rGrCrArGrGrUrCrUrGrUrCrUrGrCrCrArGrUrAdTdT / antisense rUrArCrUrGrGrCrArGrArCrArGrArCrCrUrGrCdCdC” the figure was 52.7%; with “sense rGrCrUrArArUrUrUrArUrUrGrArCrUrUrGrGrCdTdT / antisense rGrCrCrArArGrUrCrArArUrArArArUrUrArGrCdTdT”, 46.2%; with “sense rGrCrUrGrArCrCrUrArGrCrUrGrArArGrArArUdTdT / antisense rArUrUrCrUrUrCrArGrCrUrArGrGrUrCrArGrCdCdC”, 70.1%. On to “sense rGrGrArArGrCrCrArGrCrArArCrCrArArArArCdTdT / antisense rGrUrUrUrUrGrGrUrUrGrCrUrGrGrCrUrUrCrCdAdG”, for which the normalised inhibition (eCFP-eYFP dual reporter) came to 73%. Regarding “sense rGrGrCrArArGrGrGrCrUrUrArUrUrGrUrUrCrCdTdT / antisense rGrGrArArCrArArUrArArGrCrCrCrUrUrGrCrCdAdA”, the normalised inhibition (eCFP-eYFP dual reporter) amounted to 79.4%. Consider “sense rGrGrUrCrUrGrUrCrUrGrCrCrArGrUrArArUrUdTdT / antisense rArArUrUrArCrUrGrGrCrArGrArCrArGrArCrCdTdG”, for which the normalised inhibition (eCFP-eYFP dual reporter) is 74.3%.

As for “sense rGrUrCrUrGrUrCrUrGrCrCrArGrUrArArUrUrAdTdT / antisense rUrArArUrUrArCrUrGrGrCrArGrArCrArGrArCdCdT”, the normalised inhibition (eCFP-eYFP dual reporter) worked out at 91%.

On to “sense rUrArCrCrCrArUrUrCrArArArCrCrArCrCrGrAdTdT / antisense rUrCrGrGrUrGrGrUrUrUrGrArArUrGrGrGrUrAdCdT”, for which the normalised inhibition (eCFP-eYFP dual reporter) was determined as 71.8%. On the same count and under the same terms, next, “sense rUrArUrCrArCrCrCrArArArCrArUrCrGrArCrGdTdT / antisense rCrGrUrCrGrArUrGrUrUrUrGrGrGrUrGrArUrAdGdA”: 57%. Consider “sense rUrArUrUrGrArCrUrUrGrGrCrArArGrGrGrCrUdTdT / antisense rArGrCrCrCrUrUrGrCrCrArArGrUrCrArArUrAdAdA”, for which the normalised inhibition (eCFP-eYFP dual reporter) amounted to 75.3%.

With “sense rUrCrArUrArGrCrArCrUrGrGrUrGrArArUrGrAdTdT / antisense rUrCrArUrUrCrArCrCrArGrUrGrCrUrArUrGrAdGdG”, the normalised inhibition (eCFP-eYFP dual reporter) worked out at 77.5%. Same read-out and setting: with “sense rUrCrCrArGrGrUrUrGrArUrGrArArGrCrUrArAdTdT / antisense rUrUrArGrCrUrUrCrArUrCrArArCrCrUrGrGrAdTdG” the figure was 112%; with “sense rUrCrCrUrGrArCrArArCrCrCrUrCrCrArUrArUdTdT / antisense rArUrArUrGrGrArGrGrGrUrUrGrUrCrArGrGrAdAdC”, 69.7%.

For the substance “sense rUrGrArUrArArGrGrGrArGrCrCrUrUrCrArGrAdTdT / antisense rUrCrUrGrArArGrGrCrUrCrCrCrUrUrArUrCrAdTdA”, the normalised inhibition (eCFP-eYFP dual reporter) came to 110%. As to “sense rUrGrUrCrUrGrCrCrArGrUrArArUrUrArGrUrGdTdT / antisense rCrArCrUrArArUrUrArCrUrGrGrCrArGrArCrAdGdA”, the normalised inhibition (eCFP-eYFP dual reporter) worked out at 51.7%. Turning to “sense rUrUrCrArArArCrCrArCrCrGrArArGrArUrCrAdTdT / antisense rUrGrArUrCrUrUrCrGrGrUrGrGrUrUrUrGrArAdTdG”, the normalised inhibition (eCFP-eYFP dual reporter) came out at 65.9%.

Consider “sense rUrUrCrGrGrGrCrUrGrArCrCrUrArGrCrUrGrAdTdT / antisense rUrCrArGrCrUrArGrGrUrCrArGrCrCrCrGrArAdGdC”, for which the normalised inhibition (eCFP-eYFP dual reporter) is 49%. On to “sense rUrUrGrArCrUrUrGrGrCrArArGrGrGrCrUrUrAdTdT / antisense rUrArArGrCrCrCrUrUrGrCrCrArArGrUrCrArAdTdA”, for which the normalised inhibition (eCFP-eYFP dual reporter) came to 61.9%.
